Reference: patent US9914718B2, “Anhydrous crystalline form of S-equol” (Ausio Pharmaceuticals, LLC, priority 2014, dated 2018)

Assay: Long-term stability testing at room temperature storage conditions
Type: physicochemical
Description: Stability testing: To access its ability to maintain a desired chemical integrity, the stability of anhydrous crystalline polymorph of S-equol was evaluated for a period representative of the shelf-life of a pharmaceutical formulation. Anhydrous crystalline polymorph of S-equol was maintained at room temperature storage conditions, and evaluated for purity and water content.

- Appearance (0 days): white to brown
- Purity (0 days): 100% HPLC area %
- Water Content (0 days): <0.1 g/100 g
- Appearance (626 days): white to brown
- Purity (626 days): 100% HPLC area %
- Water Content (626 days): 0.05 g/100 g
- Appearance (867 days): white to brown
- Purity (867 days): 100% HPLC area %
- Water Content (867 days): 0.05 g/100 g
Compound: Oc1ccc([C@H]2COc3cc(O)ccc3C2)cc1 [anhydrous crystalline S-equol, S-equol]
